Two compounds from patent publication US7625894B2, “Pyrrolo[2,3-d]Pyrimidines as Protein Tyrosine Kinase Inhibitors” (Novartis AG, priority 2004, dated 2009) can be followed below.

Structures are written as SMILES.

One series deals with T1, Bcr-Abl (Homo sapiens, UniProt P00519).
T1 construct: host or cells: murine myeloid progenitor cell line 32Dcl3 (32D-bcr/abl); the other entry of the earlier key: BCR (P11274, Breakpoint cluster region protein)
In words: Test for activity against Bcr-Abl (phosphorylation ELISA in 32D-bcr/abl cells). Format: cell-based, murine. Particulars: 32D cells transfected with p210 Bcr-Abl; ELISA of Bcr-Abl phosphorylation; read-out: bcrabl32DcEL/ Average<32Dp210IC50 [umol l−1]>. Here is the method: Test for activity against Bcr-Abl. The murine myeloid progenitor cell line 32Dcl3 transfected with the p210 Bcr-Abl expression vector pGDp210Bcr/Abl (32D-bcr/abl) was obtained from J. Griffin (Dana Faber Cancer Institute, Boston, Mass., USA). The cells express the fusion Bcr-Abl protein with a constitutively active Abl kinase and proliferate growth factor independent. The cells are expanded in RPMI 1640 (AMIMED), 10% fetal calf serum, 2 mM glutamine (Gibco) (“complete medium”), and a working stock is prepared by freezing aliquots of 2×10^6 cells per vial in freezing medium (95% FCS, 5% DMSO (SIGMA)). After thawing, the cells are used during maximally 10-12 passages for the experiments.
For cellular assays, compounds are dissolved in DMSO and diluted with complete medium to yield a starting concentration of 10 μM followed by preparation of serial 3-fold dilutions in complete medium. 200,000 32D-Bcr/Abl cells in 50 μL complete medium are seeded per well in 96 well round bottom tissue culture plates. 50 μL per well of serial 3-fold dilutions of the test compound are added to the cells in triplicates. Untreated cells are used as control. The compound is incubated together with the cells for 90 min at 37° C., 5% CO2, followed by centrifugation of the tissue culture plates at 1300 rpm (Beckman GPR centrifuge) and removal of the supernatants by careful aspiration taking care not to remove any of the pelleted cells. The cell pellets are lysed by addition of 150 μL lysis buffer (50 mM Tris/HCl, pH 7.4, 150 mM sodium chloride, 5 mM EDTA, 1 mM EGTA, 1% NP-40, 2 mM sodium ortho-vanadate, 1 mM PMSF, 50 μg/mL aprotinin and 80 μg/mL leupeptin) and either used immediately for the ELISA or stored frozen in the plates at −20° C. until usage.
Black ELISA plates (Packard HTRF-96 black plates) are precoated over night at 4° C. with 50 ng/well of the rabbit polyclonal anti-abl-SH3 domain Ab 06-466 from Upstate in 50 μL PBS. After washing 3 times with 200 μL/well PBS containing 0.05% Tween20 (PBST) and 0.5% TopBlock (Juro), residual protein binding sites are blocked with 200 μL/well PBST, 3% TopBlock for 4 h at room temperature followed by incubation with 50 μL lysates of untreated or compound-treated cells (20 μg total protein per well) for 3-4 h at 4° C. After 3 washings, 50 μL/well anti-phosphotyrosine Ab PY20(AP) labeled with alkaline phosphatase (Zymed) diluted to 0.2 μg/mL in blocking buffer is added and incubated over night (4° C.). For all incubation steps the plates are covered with plate sealers (Costar). Finally, the plates are washed another three times with washing buffer and once with deionized water before addition of 90 μL/well of the AP-substrate CDPStar RTU with Emerald II. The plates, now sealed with Packard TopSeal™-A plate sealers, are incubated for 45 min at room temperature in the dark and luminescence is quantified by measuring counts per second (CPS) with a Packard Top Count Microplate Scintillation Counter (Top Count). The difference between the ELISA-readout (CPS) obtained for with the lysates of the untreated 32D-Bcr/Abl cells and the readout for the assay-background (all components, but without cell lysate) is calculated and taken as 100% reflecting the constitutively phosphorylated Bcr-Abl protein present in these cells. The activity of the compound on the Bcr-Abl kinase activity is expressed as percent reduction of the Bcr-Abl phosphorylation. The values for the IC50 and IC90 are determined from the dose response curves by graphical extrapolation.

The target in a further series is T2, c-Abl (Homo sapiens, UniProt P00519).
T2 construct: The His-tagged kinase domain of c-Abl is cloned and expressed in the baculovirus/Sf9 system; His; made in house; host or cells: baculovirus/Sf9
T2 sequence (P00519 242-493 limits assumed): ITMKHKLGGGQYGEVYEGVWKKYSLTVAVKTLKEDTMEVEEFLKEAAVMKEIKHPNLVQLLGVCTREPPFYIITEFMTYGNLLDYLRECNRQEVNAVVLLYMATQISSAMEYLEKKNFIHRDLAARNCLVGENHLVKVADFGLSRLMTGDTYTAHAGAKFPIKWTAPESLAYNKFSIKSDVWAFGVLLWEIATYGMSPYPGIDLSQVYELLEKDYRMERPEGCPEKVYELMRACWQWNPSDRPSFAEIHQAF
Description: Test for activity against c-Abl protein tyrosine kinase (filter binding assay). Format: biochemical. The method, then:
Test for activity against c-Abl protein tyrosine kinase. The test is conducted as a filter binding assay as follows: The His-tagged kinase domain of c-Abl is cloned and expressed in the baculovirus/Sf9 system as described by Bhat et al., J. Biol. Chem. 272, 16170-5 (1997). A protein of 37 kD (c-Abl kinase) is purified by a two-step procedure over a cobalt metal chelate column followed by an anion exchange column with a yield of 1-2 mg/L of Sf9 cells. The purity of the c-Abl kinase is >90% as judged by SDS-PAGE after Coomassie blue staining. The assay contains: c-Abl kinase (50 ng), 20 mM Tris.HCl, pH 7.5, 10 mM MgCl2, 10 μM Na3VO4, 1 mM DTT and 0.06 μCi/assay [γ^33 P]-ATP (5 μM ATP) using 30 μg/mL poly-Ala,Glu,Lys,Tyr-6:2:5:1 (Poly-AEKY, Sigma P1152) in the presence of 1% DMSO, total volume of 30 μL. Reactions are terminated by adding 10 μL of 250 mM EDTA, and 30 μL of the reaction mixture is transferred onto Immobilon-PVDF membrane (Millipore, Bedford, Mass., USA) previously soaked for 5 min with methanol, rinsed with water, then soaked for 5 min with 0.5% H3PO4 and mounted on vacuum manifold with disconnected vacuum source. After spotting all samples, vacuum is connected and each well rinsed with 200 μL 0.5% H3PO4. Membranes are removed and washed on a shaker with 0.5% H3PO4 (4 times) and once with ethanol. Membranes are counted after drying at ambient temperature, mounting in Packard TopCount 96-well frame, and addition of 10 μL/well of Microscint™ (Packard).

T1 sequence (P00519 28-1130 limits assumed): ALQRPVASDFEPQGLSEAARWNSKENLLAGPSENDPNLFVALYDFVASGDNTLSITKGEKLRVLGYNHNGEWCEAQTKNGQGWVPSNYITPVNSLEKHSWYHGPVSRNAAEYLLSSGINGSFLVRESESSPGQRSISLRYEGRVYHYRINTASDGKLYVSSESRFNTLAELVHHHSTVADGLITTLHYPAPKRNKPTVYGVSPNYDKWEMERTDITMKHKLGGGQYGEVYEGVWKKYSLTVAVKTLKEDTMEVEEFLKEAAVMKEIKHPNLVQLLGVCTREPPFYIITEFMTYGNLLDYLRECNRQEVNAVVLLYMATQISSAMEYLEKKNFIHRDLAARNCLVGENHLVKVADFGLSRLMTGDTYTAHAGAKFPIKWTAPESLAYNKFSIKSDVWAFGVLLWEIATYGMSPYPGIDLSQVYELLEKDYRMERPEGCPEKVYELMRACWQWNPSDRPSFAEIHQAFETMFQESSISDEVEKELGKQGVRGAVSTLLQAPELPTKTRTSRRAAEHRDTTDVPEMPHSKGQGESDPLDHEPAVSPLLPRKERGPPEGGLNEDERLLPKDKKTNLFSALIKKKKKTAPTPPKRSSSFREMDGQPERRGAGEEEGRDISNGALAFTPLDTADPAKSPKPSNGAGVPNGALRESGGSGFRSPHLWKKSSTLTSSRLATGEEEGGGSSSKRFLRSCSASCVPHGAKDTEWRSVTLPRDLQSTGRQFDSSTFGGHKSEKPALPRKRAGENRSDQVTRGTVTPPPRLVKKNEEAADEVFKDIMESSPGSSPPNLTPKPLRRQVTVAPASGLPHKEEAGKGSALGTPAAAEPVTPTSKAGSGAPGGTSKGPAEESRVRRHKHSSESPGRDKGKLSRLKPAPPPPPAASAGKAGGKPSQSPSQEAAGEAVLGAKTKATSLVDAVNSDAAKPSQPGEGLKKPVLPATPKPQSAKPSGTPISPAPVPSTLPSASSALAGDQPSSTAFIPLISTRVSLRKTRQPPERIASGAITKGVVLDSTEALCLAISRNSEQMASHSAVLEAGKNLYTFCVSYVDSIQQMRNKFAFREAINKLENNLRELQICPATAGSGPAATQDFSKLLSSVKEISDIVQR

Regarding `CCC(O)(CC)c1ccc(-c2cc3c(NCCCn4cccc4)ncnc3[nH]2)cc1` [Example 33, 3-{4-[4-(3-Pyrrol-1-yl-propylamino)-7H-pyrrolo[2,3-d]pyrimidin-6-yl]-phenyl}-pentan-3-ol], the melting point lay within 180 to 182 °C. On Bcr-Abl, the IC50 turned out to be 2430 nM. The same compound displayed an IC50 on c-Abl of 130 nM.
`CN(C)c1ncnc2[nH]c(-c3ccc(C(C)(C)O)cc3)cc12` [Example 34, 2-[4-(4-Dimethylamino-7H-pyrrolo[2,3-d]pyrimidin-6-yl)-phenyl]-propan-2-ol]: the melting point was more than 300 °C. At Bcr-Abl, the IC50 came out at 944 nM. The compound further came in with an IC50 on c-Abl of 21 nM.
